Reference: patent publication US20100179093A1, “Neoropeptide-2-Receptor (Y-2R) Agonists” (priority 2008, published 2010)
pEC50: −log10 of the molar value.

What was measured:
Type in all cases: cell-based
hNPY2R [1] = target: T1, hNPY2R (Homo sapiens, UniProt P49146); test: CaFlux Assay (FLIPR), Y2R; set-up: expressed in transfected cells; host or cells: HEK-293 stably expressing G protein chimera Gaqi9
T1 sequence (P49146 1-381): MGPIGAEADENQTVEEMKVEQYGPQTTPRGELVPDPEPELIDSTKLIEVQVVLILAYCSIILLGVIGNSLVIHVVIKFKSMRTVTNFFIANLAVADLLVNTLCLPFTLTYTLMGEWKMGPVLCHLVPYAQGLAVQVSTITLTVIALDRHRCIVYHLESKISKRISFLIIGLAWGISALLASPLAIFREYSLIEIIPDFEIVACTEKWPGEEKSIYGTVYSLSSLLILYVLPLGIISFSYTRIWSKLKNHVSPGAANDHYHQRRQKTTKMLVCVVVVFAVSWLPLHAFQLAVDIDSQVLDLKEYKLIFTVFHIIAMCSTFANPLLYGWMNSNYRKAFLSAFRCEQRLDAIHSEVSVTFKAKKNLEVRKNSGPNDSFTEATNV
Protocol: Hek-293 cells were stably transfected with the G protein chimera Gaqi9 and the hygromycin-B resistance gene were further transfected with the human NPY2 receptor and G418 antibiotic selection. Following selection in both hygromycin-B and G418, individual clones were assayed for their response to PYY. The transfected cells were cultured in DMEM medium supplemented with 10% fetal bovine serum, 50 μg/mL hygromycin-B 2 mM glutamine, 100 U/mL penicillin, 100 μg/mL streptomycin and 250 μg/mL G418. Cells are harvested with trypsin-EDTA and counted using ViaCount reagent. The cell suspension volume is adjusted to 4.8×10^5 cells/mL with complete growth media. Aliquots of 25 μL are dispensed into 384 well Poly-D Lysine coated black/clear microplates (Falcon) and the microplates were placed in a 37° C. CO2 incubator overnight. Loading Buffer (Calcium-3 Assay Kit, Molecular Devices) was prepared by dissolving the contents of one vial (Express Kit) into 1000 mL Hank's Balanced Salt Solution containing 20 mM HEPES and 5 mM probenecid. Aliquots of 25 μL of diluted dye were dispensed into the cell plates and the plates are then incubated for 1 hour at 37° C. During the incubation, test compounds were prepared at 3.5× the desired concentration in HBSS (20 mM HEPES)/0.05% BSA/1% DMSO and transferred to a 384 well plate for use on FLIPR. After incubation, both the cell and compound plates were brought to the FLIPR and 20 μL of the diluted compounds were transferred to the cell plates by the FLIPR. During the assay, fluorescence readings were taken simultaneously from all 384 wells of the cell plate every 1.5 seconds. Five readings were taken to establish a stable baseline, and then 20 μL of sample was rapidly (30 μL/sec) and simultaneously added to each well of the cell plate. The fluorescence was continuously monitored before, during and after sample addition for a total elapsed time of 100 seconds. Responses (increase in peak fluorescence) in each well following addition were determined. The initial fluorescence reading from each well, prior to ligand stimulation, was used as a zero baseline value for the data from that well. The responses are expressed as % of maximal response of the positive control.

Y1R = target: T2, Y1R (Homo sapiens, UniProt P25929); test: CaFlux Assay (FLIPR), Y1R
T2 sequence (P25929 1-384): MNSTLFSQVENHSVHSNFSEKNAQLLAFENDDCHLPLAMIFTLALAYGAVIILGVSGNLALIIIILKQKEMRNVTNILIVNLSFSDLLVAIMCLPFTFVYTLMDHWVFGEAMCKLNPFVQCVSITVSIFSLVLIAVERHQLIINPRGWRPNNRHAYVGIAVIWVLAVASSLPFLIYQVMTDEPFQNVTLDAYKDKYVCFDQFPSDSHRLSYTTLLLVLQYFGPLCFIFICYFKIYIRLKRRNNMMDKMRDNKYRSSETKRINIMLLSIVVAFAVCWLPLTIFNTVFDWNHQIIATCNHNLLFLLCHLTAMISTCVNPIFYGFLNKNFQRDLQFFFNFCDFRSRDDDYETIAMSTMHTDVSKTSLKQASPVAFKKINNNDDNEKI

hNPY2R [2] = target: T1, hNPY2R; test: cAMP Agonist Assay, HEK293/hNPY2R cells; set-up: expressed in transfected cells; host or cells: HEK293/hNPY2R (G418 selection)
Protocol: On the first day, medium was discarded, and the monolayer cells were washed with 10 mL PBS per flask (T225). […] The flask was gently tapped and the cell suspension was pooled. Each flask was rinsed with 10 mL plating medium and centrifuged at 1000 rpm for 5 min. The suspension was pooled and counted. The suspension was resuspended in plating medium at a density of 2.0×10^5 cells/mL for HEK293/hNPY2R. 50 microliters of cells (HEK293/hNPY2R-10,000 cells/well) were transferred into the 384-well plate using Multi-drop dispenser. The plates were incubated at 37° C. overnight. […] The media and reagents were allowed to come to room temperature. Before the dilutions were prepared, the stock solution of stimulating compound in dimethyl sulphoxide (DMSO, Sigma, cat #D2650) was allowed to warm up to 32 C for 5-10 min. […] The cell medium was tapped off with a gentle inversion of the cell plate on a paper towel. 50 μL of stimulation medium was placed per well (each concentration done in four replicates). The plates were incubated at room temperature for 30 min, and the cells were checked under a microscope for toxicity. After 30 minutes of treatment, the stimulation media was discarded and 50 mL/well of Assay Lysis Buffer (provided in the Tropix kit) was added. The plates were incubated for 45 min@37° C. 20 μL of the lysate was transferred from stimulation plates into the pre-coated antibody plates (384-well) from the Tropix kit. 10 μL of AP conjugate and 20 μL of anti-cAMP antibody was added. The plates were incubated at room temperature while shaking for 1 hour. The plates were then washed 5 times with Wash Buffer, 70 μL per well for each wash. The plates were tapped to dry. 30 μL/well of CSPD/Saphire-II RTU substrate/enhancer solution was added and incubated for 45 min @ RT (shake). Signal for 1 sec/well in a Luminometer.

Y4R = Y4R (Homo sapiens, UniProt P50391); test: CaFlux Assay (FLIPR), Y4R
Y5R = target: T3, Y5R (Homo sapiens, UniProt Q15761); test: CaFlux Assay (FLIPR), Y5R;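 on Emax: percent of the maximal response of the positive control agonist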
T3 sequence (Q15761 1-445): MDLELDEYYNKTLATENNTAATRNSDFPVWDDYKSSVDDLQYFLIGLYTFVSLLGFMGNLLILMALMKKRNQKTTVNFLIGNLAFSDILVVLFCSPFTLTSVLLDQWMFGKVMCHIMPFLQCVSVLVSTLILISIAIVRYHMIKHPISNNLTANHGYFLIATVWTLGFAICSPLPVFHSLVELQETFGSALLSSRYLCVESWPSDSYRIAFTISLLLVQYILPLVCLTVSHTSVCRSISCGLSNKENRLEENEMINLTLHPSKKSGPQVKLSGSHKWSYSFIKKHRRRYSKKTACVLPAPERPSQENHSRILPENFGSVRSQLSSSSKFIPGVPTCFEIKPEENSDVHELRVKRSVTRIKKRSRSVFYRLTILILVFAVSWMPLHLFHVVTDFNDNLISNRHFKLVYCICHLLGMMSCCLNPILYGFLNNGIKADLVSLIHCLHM

Y4R, sequence (P50391 whole entry): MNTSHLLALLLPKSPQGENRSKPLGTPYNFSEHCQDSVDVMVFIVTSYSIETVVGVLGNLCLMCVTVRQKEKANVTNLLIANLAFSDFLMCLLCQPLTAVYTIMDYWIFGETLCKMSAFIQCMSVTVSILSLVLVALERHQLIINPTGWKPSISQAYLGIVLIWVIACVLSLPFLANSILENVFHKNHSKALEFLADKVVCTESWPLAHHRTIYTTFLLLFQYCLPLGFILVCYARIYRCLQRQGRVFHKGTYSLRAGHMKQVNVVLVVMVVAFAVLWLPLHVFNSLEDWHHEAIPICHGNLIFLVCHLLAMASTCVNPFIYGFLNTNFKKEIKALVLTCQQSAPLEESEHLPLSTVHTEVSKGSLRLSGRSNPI

| Compound | pEC50 (hNPY2R [1]) | pEC50 (Y1R) | pEC50 (hNPY2R [2]) | pEC50 (Y4R) | pEC50 (Y5R) | Emax (Y5R; read-out: Y5R FLIPR, percentage in parentheses under the EC50) |
| --- | --- | --- | --- | --- | --- | --- |
| CCCC(=O)NCCCC[C@H](NC(=O)[C@@H](NC(C)=O)[C@@H](C)CC)C(=O)N1CCN(c2ccc3ncn(CC(=O)N[C@@H](CCCNC(=N)N)C(=O)N[C@@H](Cc4c[nH]cn4)C(=O)N[C@@H](Cc4ccc(O)cc4)C(=O)N[C@@H](CC(C)C)C(=O)N[C@@H](CC(N)=O)C(=O)N[C@@H](Cc4c[nH]c5ccccc45)C(=O)N[C@H](C(=O)N[C@H](C(=O)N[C@@H](CCCNC(=N)N)C(=O)N[C@@H](CCC(N)=O)C(=O)N(C)[C@@H](CCCNC(=N)N)C(=O)N[C@@H](Cc4ccc(O)cc4)C(N)=O)[C@@H](C)O)C(C)C)c(=O)c3c2)CC1 [Example 5] | 9.74 | < 5.30 | 9.41 | 4.50 | 4.60 | – |
| CCCCCCCC(=O)NCCCC[C@H](NC(=O)[C@@H](NC(C)=O)[C@@H](C)CC)C(=O)N1CCN(c2ccc3ncn(CC(=O)N[C@@H](CCCNC(=N)N)C(=O)N[C@@H](Cc4c[nH]cn4)C(=O)N[C@@H](Cc4ccc(O)cc4)C(=O)N[C@@H](CC(C)C)C(=O)N[C@@H](CC(N)=O)C(=O)N[C@@H](Cc4c[nH]c5ccccc45)C(=O)N[C@H](C(=O)N[C@H](C(=O)N[C@@H](CCCNC(=N)N)C(=O)N[C@@H](CCC(N)=O)C(=O)N(C)[C@@H](CCCNC(=N)N)C(=O)N[C@@H](Cc4ccc(O)cc4)C(N)=O)[C@@H](C)O)C(C)C)c(=O)c3c2)CC1 [Example 6] | 8.84 | 5.28 | 8.77 | 5.61 | 4.00 | – |
| CCCCCCCCCCCC(=O)NCCCC[C@H](NC(=O)[C@@H](NC(C)=O)[C@@H](C)CC)C(=O)N1CCN(c2ccc3ncn(CC(=O)N[C@@H](CCCNC(=N)N)C(=O)N[C@@H](Cc4c[nH]cn4)C(=O)N[C@@H](Cc4ccc(O)cc4)C(=O)N[C@@H](CC(C)C)C(=O)N[C@@H](CC(N)=O)C(=O)N[C@@H](Cc4c[nH]c5ccccc45)C(=O)N[C@H](C(=O)N[C@H](C(=O)N[C@@H](CCCNC(=N)N)C(=O)N[C@@H](CCC(N)=O)C(=O)N(C)[C@@H](CCCNC(=N)N)C(=O)N[C@@H](Cc4ccc(O)cc4)C(N)=O)[C@@H](C)O)C(C)C)c(=O)c3c2)CC1 [Example 7] | 8.33 | 5.19 | 8.27 | 4.84 | 4.89 | – |
| CCCCCCCCCCCC(=O)NCCCCCC(=O)NCCCC[C@H](NC(=O)[C@@H](N)[C@@H](C)CC)C(=O)N1CCN(c2ccc3ncn(CC(=O)N[C@@H](CCCNC(=N)N)C(=O)N[C@@H](Cc4c[nH]cn4)C(=O)N[C@@H](Cc4ccc(O)cc4)C(=O)N[C@@H](CC(C)C)C(=O)N[C@@H](CC(N)=O)C(=O)N[C@@H](Cc4c[nH]c5ccccc45)C(=O)N[C@H](C(=O)N[C@H](C(=O)N[C@@H](CCCNC(=N)N)C(=O)N[C@@H](CCC(N)=O)C(=O)N(C)[C@@H](CCCNC(=N)N)C(=O)N[C@@H](Cc4ccc(O)cc4)C(N)=O)[C@@H](C)O)C(C)C)c(=O)c3c2)CC1 [Example 9] | 10.51 | < 5.30 | 8.46 | 5.61 | 5.42 | – |
| CCCCCCCCCCCC(=O)NCCC(=O)NCCCC[C@H](NC(=O)[C@@H](N)[C@@H](C)CC)C(=O)N1CCN(c2ccc3ncn(CC(=O)N[C@@H](CCCNC(=N)N)C(=O)N[C@@H](Cc4c[nH]cn4)C(=O)N[C@@H](Cc4ccc(O)cc4)C(=O)N[C@@H](CC(C)C)C(=O)N[C@@H](CC(N)=O)C(=O)N[C@@H](Cc4c[nH]c5ccccc45)C(=O)N[C@H](C(=O)N[C@H](C(=O)N[C@@H](CCCNC(=N)N)C(=O)N[C@@H](CCC(N)=O)C(=O)N(C)[C@@H](CCCNC(=N)N)C(=O)N[C@@H](Cc4ccc(O)cc4)C(N)=O)[C@@H](C)O)C(C)C)c(=O)c3c2)CC1 [Example 10] | 10.80 | < 5.30 | 8.28 | 5.46 | 5.32 | – |
| CCCCCCCCCCCC(=O)N[C@@H](CCC(=O)O)C(=O)NCCCC[C@H](NC(=O)[C@@H](N)[C@@H](C)CC)C(=O)N1CCN(c2ccc3ncn(CC(=O)N[C@@H](CCCNC(=N)N)C(=O)N[C@@H](Cc4c[nH]cn4)C(=O)N[C@@H](Cc4ccc(O)cc4)C(=O)N[C@@H](CC(C)C)C(=O)N[C@@H](CC(N)=O)C(=O)N[C@@H](Cc4c[nH]c5ccccc45)C(=O)N[C@H](C(=O)N[C@H](C(=O)N[C@@H](CCCNC(=N)N)C(=O)N[C@@H](CCC(N)=O)C(=O)N(C)[C@@H](CCCNC(=N)N)C(=O)N[C@@H](Cc4ccc(O)cc4)C(N)=O)[C@@H](C)O)C(C)C)c(=O)c3c2)CC1 [Example 11] | 10.59 | < 5.30 | 8.44 | 5.61 | 5.45 | – |
| CCCCCCCCCCCCCCCC(=O)NCCCC[C@H](NC(=O)[C@@H](NC(C)=O)[C@@H](C)CC)C(=O)N1CCN(c2ccc3ncn(CC(=O)N[C@@H](CCCNC(=N)N)C(=O)N[C@@H](Cc4c[nH]cn4)C(=O)N[C@@H](Cc4ccc(O)cc4)C(=O)N[C@@H](CC(C)C)C(=O)N[C@@H](CC(N)=O)C(=O)N[C@@H](Cc4c[nH]c5ccccc45)C(=O)N[C@H](C(=O)N[C@H](C(=O)N[C@@H](CCCNC(=N)N)C(=O)N[C@@H](CCC(N)=O)C(=O)N(C)[C@@H](CCCNC(=N)N)C(=O)N[C@@H](Cc4ccc(O)cc4)C(N)=O)[C@@H](C)O)C(C)C)c(=O)c3c2)CC1 [Example 13] | 8.88 | 4.53 | 8.92 | 4.49 | 5.03 | – |
| CCCCCCCCCCCCCCCC(=O)NCCCC[C@H](NC(=O)[C@@H](N)[C@@H](C)CC)C(=O)N1CCN(c2ccc3ncn(CC(=O)N[C@@H](CCCNC(=N)N)C(=O)N[C@@H](Cc4c[nH]cn4)C(=O)N[C@@H](Cc4ccc(O)cc4)C(=O)N[C@@H](CC(C)C)C(=O)N[C@@H](CC(N)=O)C(=O)N[C@@H](Cc4c[nH]c5ccccc45)C(=O)N[C@H](C(=O)N[C@H](C(=O)N[C@@H](CCCNC(=N)N)C(=O)N[C@@H](CCC(N)=O)C(=O)N(C)[C@@H](CCCNC(=N)N)C(=O)N[C@@H](Cc4ccc(O)cc4)C(N)=O)[C@@H](C)O)C(C)C)c(=O)c3c2)CC1 [Example 14] | 9.14 | < 5.30 | 9.00 | < 5.30 | 4.90 | – |
| CCCCCCCCCCCCCCCC(=O)N[C@H](C(=O)N[C@@H](CCCCN)C(=O)N1CCN(c2ccc3ncn(CC(=O)N[C@@H](CCCNC(=N)N)C(=O)N[C@@H](Cc4c[nH]cn4)C(=O)N[C@@H](Cc4ccc(O)cc4)C(=O)N[C@@H](CC(C)C)C(=O)N[C@@H](CC(N)=O)C(=O)N[C@@H](Cc4c[nH]c5ccccc45)C(=O)N[C@H](C(=O)N[C@H](C(=O)N[C@@H](CCCNC(=N)N)C(=O)N[C@@H](CCC(N)=O)C(=O)N(C)[C@@H](CCCNC(=N)N)C(=O)N[C@@H](Cc4ccc(O)cc4)C(N)=O)[C@@H](C)O)C(C)C)c(=O)c3c2)CC1)[C@@H](C)CC [Example 15] | 8.99 | < 5.30 | 9.01 | 5.87 | < 5.30 | – |
| CCCCCCCCCCCCCCCC(=O)NCCC(=O)N[C@@H](CCC(=O)O)C(=O)NCCCC[C@H](NC(=O)[C@@H](N)[C@@H](C)CC)C(=O)N1CCN(c2ccc3ncn(CC(=O)N[C@@H](CCCNC(=N)N)C(=O)N[C@@H](Cc4c[nH]cn4)C(=O)N[C@@H](Cc4ccc(O)cc4)C(=O)N[C@@H](CC(C)C)C(=O)N[C@@H](CC(N)=O)C(=O)N[C@@H](Cc4c[nH]c5ccccc45)C(=O)N[C@H](C(=O)N[C@H](C(=O)N[C@@H](CCCNC(=N)N)C(=O)N[C@@H](CCC(N)=O)C(=O)N(C)[C@@H](CCCNC(=N)N)C(=O)N[C@@H](Cc4ccc(O)cc4)C(N)=O)[C@@H](C)O)C(C)C)c(=O)c3c2)CC1 [Example 22] | – | – | – | – | – | 70% |
